Measured values: patent US8952024B2, “Herbicidal pyrimidone derivatives” (E I du Pont de Nemours and Company, priority 2009, dated 2015)
Read-outs that look alike come from different tables or passages of the source.

How the values were obtained:
Type in all cases: in vivo
[1] = system: rice (Oryza sativa); assay: Test B flooded paddy test; conditions: for plant injury at 250 g/ha / plant injury at 31 g/ha / plant injury at 62 g/ha / plant injury at 125 g/ha: Oryza sativa; for plant injury at 250 g/ha: 250 g ai/ha, flooded paddy test, visual rating on 0 to 100 scale (0 no effect, 100 complete control) after 13 to 15 days, read-out: Plant response rating, Flood, Rice; for plant injury at 31 g/ha / plant injury at 62 g/ha / plant injury at 125 g/ha: Flood (flooded paddy test), 13 to 15 days, read-out: Plant response rating, Rice; for plant injury at 62 g/ha: 62 g ai/ha; for plant injury at 125 g/ha: 125 g ai/ha
In short: (§1)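 2-leaf seedlings; pots flooded 3 cm over soil at treatment; cpd dosed into floodwater, depth kept constant. Greenhouse 13–15 d. Visual rating vs untreated controls, 0 = no effect, 100 = complete control.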

[2] = system: ducksalad (Heteranthera limosa); assay: Test B flooded paddy test; conditions: for pest or weed control at 250 g/ha / pest or weed control at 31 g/ha / pest or weed control at 62 g/ha / pest or weed control at 125 g/ha: Heteranthera limosa, 360 h; for pest or weed control at 250 g/ha: 250 g ai/ha, flooded paddy test, visual rating on 0 to 100 scale (0 no effect, 100 complete control) after 13 to 15 days, read-out: Plant response rating, Flood, Ducksalad; for pest or weed control at 31 g/ha / pest or weed control at 62 g/ha / pest or weed control at 125 g/ha: Flood (flooded paddy test), 13 to 15 days, read-out: Plant response rating, Ducksalad; for pest or weed control at 62 g/ha: 62 g ai/ha; for pest or weed control at 125 g/ha: 125 g ai/ha
In short: as §1

[3] = system: umbrella sedge (Cyperus difformis); assay: Test B flooded paddy test; conditions: for pest or weed control at 250 g/ha / pest or weed control at 31 g/ha / pest or weed control at 62 g/ha / pest or weed control at 125 g/ha: Cyperus difformis, 360 h; for pest or weed control at 250 g/ha: 250 g ai/ha, flooded paddy test, visual rating on 0 to 100 scale (0 no effect, 100 complete control) after 13 to 15 days, read-out: Plant response rating, Flood, Sedge, Umbrella; for pest or weed control at 31 g/ha / pest or weed control at 62 g/ha / pest or weed control at 125 g/ha: Flood (flooded paddy test), 13 to 15 days, read-out: Plant response rating, Sedge, Umbrella; for pest or weed control at 62 g/ha: 62 g ai/ha; for pest or weed control at 125 g/ha: 125 g ai/ha
In short: as §1

[4] = system: barnyardgrass (Echinochloa crus-galli); assay: Test B flooded paddy test; conditions: for pest or weed control at 250 g/ha / pest or weed control at 31 g/ha / pest or weed control at 62 g/ha / pest or weed control at 125 g/ha: Echinochloa crus-galli, 360 h; for pest or weed control at 250 g/ha: 250 g ai/ha, flooded paddy test, visual rating on 0 to 100 scale (0 no effect, 100 complete control) after 13 to 15 days, read-out: Plant response rating, Flood, Barnyardgrass; for pest or weed control at 31 g/ha / pest or weed control at 62 g/ha / pest or weed control at 125 g/ha: Flood (flooded paddy test), 13 to 15 days, read-out: Plant response rating, Barnyardgrass; for pest or weed control at 62 g/ha: 62 g ai/ha; for pest or weed control at 125 g/ha: 125 g ai/ha
In short: as §1

[5] = system: pigweed (Amaranthus retroflexus); assay: Test A pre-/postemergence plant response; conditions: Amaranthus retroflexus, 240 h; for pest or weed control at 125 g/ha: 125 g ai/ha; for pest or weed control at 500 g/ha: 500 g ai/ha
In short: (§2)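 Plants grown from seed in a loam soil and sand mix received test compounds both as a preemergence soil spray and, at the same time, as a postemergence spray at the one- to two-leaf stage. Injury was judged visually against untreated controls roughly ten days later, 0 meaning no effect and 100 complete control.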

[6] = system: morningglory (Ipomoea spp.); assay: Test A pre-/postemergence plant response; conditions: Ipomoea, 240 h; for pest or weed control at 125 g/ha: 125 g ai/ha; for pest or weed control at 500 g/ha: 500 g ai/ha
In short: as §2

[7] = 31 g ai/ha, scale of 0 to 100 where 0 is no effect and 100 is complete control
[8] = scale 0 to 100, 0 is no effect, 100 is complete control
[9] = post-emergence, Postemergence, visual injury, 0 to 100 scale (0 no effect, 100 complete control), approx. ten days, read-out: Pigweed plant response rating
[10] = post-emergence, Postemergence, 0 to 100 scale, 0 = no effect, 100 = complete control, approx. ten days, read-out: Plant response rating, Pigweed
[11] = pre-emergence, Preemergence, 0 to 100 scale, 0 = no effect, 100 = complete control, read-out: Plant response rating, Pigweed
[12] = post-emergence, Postemergence, visual injury, 0 to 100 scale (0 no effect, 100 complete control), approx. ten days, read-out: Morningglory plant response rating
[13] = post-emergence, Postemergence, 0 to 100 scale, 0 = no effect, 100 = complete control, approx. ten days, read-out: Plant response rating, Morningglory
[14] = pre-emergence, Preemergence, 0 to 100 scale, 0 = no effect, 100 = complete control, read-out: Plant response rating, Morningglory
[15] = pre-emergence, Preemergence, visual injury, 0 to 100 scale (0 no effect, 100 complete control), approx. ten days, read-out: Plant response rating, Morningglory
[16] = Flood, 31 g ai/ha, scale 0 to 100 (0 no effect, 100 complete control)
[17] = scale of 0 to 100 where 0 is no effect and 100 is complete control

| SMILES | plant injury at 250 g/ha [1] | plant injury at 31 g/ha [1, 7] | plant injury at 62 g/ha [1, 8] | plant injury at 125 g/ha [1, 8] | pest or weed control at 250 g/ha [2] | pest or weed control at 31 g/ha [2, 7] | pest or weed control at 62 g/ha [2, 8] | pest or weed control at 125 g/ha [2, 8] | pest or weed control at 250 g/ha [3] | pest or weed control at 31 g/ha [3, 7] | pest or weed control at 62 g/ha [3, 8] | pest or weed control at 125 g/ha [3, 8] | pest or weed control at 250 g/ha [4] | pest or weed control at 31 g/ha [4, 7] | pest or weed control at 62 g/ha [4, 8] | pest or weed control at 125 g/ha [4, 8] | pest or weed control at 125 g/ha [5, 9] | pest or weed control at 500 g/ha [5, 10] | pest or weed control at 125 g/ha [5, 11] | pest or weed control at 125 g/ha [6, 14] | other results |
| --- | --- | --- | --- | --- | --- | --- | --- | --- | --- | --- | --- | --- | --- | --- | --- | --- | --- | --- | --- | --- | --- |
| CCn1ncc(C(=O)c2cnc(-c3ccccc3)n(Cc3ccccc3)c2=O)c1O [Compound 20, 5-[(1-ethyl-5-hydroxy-1H-pyrazol-4-yl)carbonyl]-2-phenyl-3-(phenylmethyl)-4(3H)-pyrimidinone] | 15% | 0% | 0% | 0% | 75% | 60% | 60% | 65% | 60% | 0% | 40% | 50% | 0% | 0% | 0% | 0% | 10% | 50% | 0% | 0% | pest or weed control at 125 g/ha [6, 12]: 0%; pest or weed control at 500 g/ha [6, 13]: 10%; pest or weed control at 500 g/ha [6, 15]: 0% |
| CCn1ncc(C(=O)c2cnc(-c3ccccc3)n(Cc3ccccc3)c2=O)c1OS(=O)(=O)c1ccc(C)cc1 [Compound 21, 5-[[1-ethyl-5-[[(4-methylphenyl)sulfonyl]oxy]-1H-pyrazol-4-yl]carbonyl]-2-phenyl-3-(phenylmethyl)-4(3H)-pyrimidinone] | 0% | 0% | 0% | 0% | 75% | 60% | 70% | 70% | 65% | 40% | 50% | 60% | 0% | 0% | 0% | 0% | 0% | 50% |  | 0% | pest or weed control at 500 g/ha ([5]; pre-emergence, Preemergence, visual injury, 0 to 100 scale (0 no effect, 100 complete control), approx. ten days, read-out: Plant response rating, Pigweed): 70%; pest or weed control at 125 g/ha [6, 12]: 0%; pest or weed control at 500 g/ha [6, 13]: 0%; pest or weed control at 500 g/ha [6, 15]: 0% |
| O=C(c1cnoc1C1CC1)c1cnc(-c2ccccc2)n(-c2ccccc2)c1=O [Compound 223, 5-[(5-cyclopropyl-4-isoxazolyl)-carbonyl]-2,3-diphenyl-4(3H)-pyrimidinone] | 0% |  |  | 0% | 0% |  |  | 0% | 0% |  |  | 0% | 0% |  |  | 0% |  |  | 60% | 10% | Rice plant response rating [1, 16]: 0; plant injury at 62 g/ha [1, 17]: 0%; Ducksalad plant response rating [2, 16]: 0; pest or weed control at 62 g/ha [2, 17]: 0%; pest or weed control at 62 g/ha [3, 17]: 0%; Sedge, Umbrella plant response rating [3, 16]: 0; pest or weed control at 62 g/ha [4, 17]: 0%; Barnyardgrass plant response rating [4, 16]: 0; pest or weed control at 125 g/ha ([5]; post-emergence, Postemergence, 0 to 100 scale where 0 is no effect and 100 is complete control, read-out: Plant response rating, Pigweed): 50%; pest or weed control at 500 g/ha [5, 9]: 70%; pest or weed control at 500 g/ha [5, 11]: 90%; pest or weed control at 125 g/ha ([6]; post-emergence, Postemergence, 0 to 100 scale where 0 is no effect and 100 is complete control, read-out: Plant response rating, Morningglory): 60%; pest or weed control at 500 g/ha [6, 12]: 80% |
